In US20190269721A1, “METHODS AND COMPOSITIONS FOR DEGRADING CALCIUM PHOSPHATE AND FOR TREATING CALCIFICATION DISORDERS” (MERZ NORTH AMERICA, INC., priority 2016, published 2019):
Read-outs that look alike come from different tables or passages of the source. Blank lines part the entries; values can stand above or below the compound they belong to.

Legend:
[1] = Degradation of Radiesse calcium hydroxyapatite filler injected into porcine samples (histology of punch biopsy); details: for dissolution of calcium hydroxyapatite in the samples: 24 hours after treatment, histology
Description: In a prospective, single-center clinical trial, 12 porcine samples (pieces of fresh pork shoulder) were injected with Radiesse®, with volumes ranging from 0.4 to 0.8 mL.
The samples were then randomized to three treatment groups: topical sodium metabisulfite (25% (w/v) SMB, formulated in petrolatum jelly: about 1-2 grams SMB applied topically to each site on the skin, 25% (w/v) sodium metabisulfite in 120 ml gel) application with occlusion, intralesional injection of about 0.2 mL of sodium thiosulfate solution (STS, concentration 12.5 g/50 mL, i.e., 0.25 g/mL or 25% (w/v)), or both. The volume ratio of Radiesse:STS solution ranged from 2:1 to 4:1. In the control group, samples were not treated after the Radiesse® injection.
(§1) Twenty-four hours after treatment, a 4-mm punch biopsy was obtained and processed for histology to evaluate the presence, absence, or degradation of calcium hydroxyapatite (FIGS. 1A-1D). A blinded, board-certified dermatopathologist read the samples and determined the amount of calcium present in each sample.

[2] = Degradation of Radiesse calcium hydroxyapatite filler injected into human skin samples (histology of punch biopsy); details: for dissolution of calcium hydroxyapatite in the samples: 24 hours after treatment, histology
Description: Human skin samples (two living skin samples taken from living tissue in each group) were injected with 0.4 mL Radiesse®.
The samples were then randomized to three treatment groups: topical sodium metabisulfite (25% (w/v) SMB, formulated in petrolatum jelly, about 1-2 grams SMB applied topically to each site on the skin) application with occlusion, intralesional injection of about 0.4-0.8 mL sodium thiosulfate solution (STS, concentration 12.5 g/50 mL i.e., 0.25 g/mL), or both. In the control group, samples were not treated after the Radiesse® injection.
as §1, with “1E-1F).” for “1A-1D).”

[3] = Description: (§2) At visit 1, deep CaHA nodules were injected using a 32-gauge half inch needle with STS (STS, concentration 12.5 g/50 mL, i.e., 0.25 g/mL; 2 injections; 0.3 mL total). At visit 2 (about 3-4 weeks after visit 1), the patient received subsequent injections using a 32-gauge half inch needle on a luer lock syringe of STS (0.3 mL total) to superficial CaHA nodules.
[4] = 1-2 h post-STS injection
Description: In the prospective histology study, 3 patients received Radiesse® injections (12-20 injections/patient) followed by intralesional STS injection (STS, concentration 12.5 g/50 mL, i.e., 0.25 g/mL) in the abdomen/arm prior to abdominoplasty/brachioplasty. Patients received various Radiesse:STS solution volume ratios ranging from 1:1 to 1:2.5, including patient 1: 0.5 mL CaHA and 0.5 mL STS per site (volume ratio of CaHA:STS is 1:1); patient 2: 0.2 mL CaHA and 0.5 mL STS per site (volume ratio of CaHA:STS is 1:2.5); patient 3: 0.15 mL CaHA and 0.3 mL STS per site (volume ratio of CaHA:STS is 1:2). Tissue was harvested about 1-2 h after STS injection, and a 4-mm punch biopsy was assessed for the presence of CaHA (using hematoxylin-eosin sections).
as §2

[5] = remark: listed apart in the source
Description: A filler composition comprising CaHA and HA (hyaluronic acid) was used in a subject. 0.4 ml of CaHA was mixed with 0.4 ml of a highly cohesive HA filler and injected into the volar surface of a human forearm. 0.4 ml of intralesional (IL) STS was injected intralesionally into the treated area. 4 hours after treatment, a 5-mm punch biopsy was obtained. H &E was used to evaluate the presence, absence, or degradation of calcium hydroxyapatite and hyaluronic acid. A blinded, board-certified dermatopathologist read the samples and determined the amount of calcium present in each sample.

[6] = background statement; cited from earlier work
[7] = over the next 4 days or so after visit 1

Compound: O=S([O-])([O-])=S.[Na+].[Na+] [STS, sodium thiosulfate]
% of calcium hydroxyapatite degraded 24 hrs after treatment ([1]; porcine samples, 0.4-0.8 mL Radiesse, STS 25% (w/v) about 0.2 mL intralesional, SMB 25% (w/v) topical with occlusion, 4-mm punch biopsy): 100% | dissolution of calcium hydroxyapatite in the samples ([1]; porcine samples): completely dissolved | % of calcium hydroxyapatite degraded 24 hrs after treatment ([2]; human skin samples, 0.4 mL Radiesse, STS 0.25 g/mL about 0.4-0.8 mL intralesional, SMB 25% (w/v) topical with occlusion, 4-mm punch biopsy): 100% | dissolution of calcium hydroxyapatite in the samples ([2]; human skin samples): completely dissolved | effects on collagen or surrounding structures ([2]; human tissue, intralesional STS and/or topical SMB): no apparent deleterious effects | time until burning sensation resolved ([3]; after immediate ice application): ≤ 1 min | burning sensation upon injection, 10-point pain scale ([3]; both visits): 5-6 | erythema [3, 7]: concomitant reduction in erythema | nodule sizes (patient reported) [3, 7]: progressive reduction in nodule sizes | effect on deep nodules ([3]; visit 1, first STS injection, 0.3 mL total, 0.25 g/mL): immediate softening | time until superficial nodules softened and became semi-fluctuant ([3]; visit 2, STS 0.3 mL total): 1 to 2 min | CaHA dissolution in histologic analyses ([4]; all human tissue samples, CaHA:STS volume ratio 1:1 to 1:2.5): markedly dissolved | CaHA decrease ([4]; human tissue samples): no less than 70% | reduction of the amount of calcium phosphate tissue filler ([5]; about 24 hours after administration): about 100% | effects on collagen or surrounding structures ([5]; human tissue, intralesional STS): no apparent deleterious effects | dissolution of CaHA in a mixture of CaHA and HA ([5]; reduced time period of 4 hours): completely dissolve | dissolution of calcium hydroxyapatite in the sample ([5]; twenty-four hours after intralesional STS injection, 0.4 ml STS, 0.4 ml CaHA + 0.4 ml HA): completely dissolved

Compound: O=C(O)CN(CCN(CC(=O)O)CC(=O)O)CC(=O)O [EDTA, ethylenediaminetetraacetic acid]
ability to dissolve / reduce calcium hydroxyapatite [6]: unsuccessful

% of calcium hydroxyapatite degraded 24 hrs after treatment [1]: ~50% | effects on collagen or surrounding structures [2]: no apparent deleterious effects
Compound: O=S([O-])S(=O)(=O)[O-].[Na+].[Na+] [SMB, sodium metabisulfite]
dissolution of calcium hydroxyapatite in the samples ([1]; porcine samples): reduced, but did not entirely clear | dissolution of calcium hydroxyapatite in the samples ([2]; human skin samples): reduced, but did not entirely clear

Compound: hyaluronidase
ability to dissolve / reduce calcium hydroxyapatite [6]: cannot effectively dissolve
